In one data set the test system is Leishmania donovani. Nature of the data set: Antiparasitic activity against amastigote form of Leishmania donovani MHOM/ET/67/L82 assessed as growth inhibition after 70 hrs by resazurin dye-based fluorometric analysis. It counts as functional, organism-based. Conditions: MHOM/ET/67/L82, 70 h. In general terms: The colour change of resazurin is a common sign of viable cells or microbes.

Data set [1] has as its system Trypanosoma brucei brucei. Nature of the data set: Antitrypanosomal activity against Trypanosoma brucei brucei infected in HEK293 cells assessed as growth inhibition after 72 hrs by Alamar Blue assay. To be noted: HEK293, 72 h. It counts as functional, organism-based.
Data set [2] can be described thus: Selectivity index, ratio of IC50 for HEK293 cells to IC50 for Trypanosoma brucei brucei infected in HEK293 cells. It counts as toxicity, cell-based. Conditions: human, read-out: Ratio IC50.
The nature of data set [3]: Selectivity index, ratio of IC50 for rat L6 cells to IC50 for bloodstream form of Trypanosoma brucei rhodesiense STIB900. It counts as toxicity, cell-based. To be noted: read-out: Ratio IC50.
The next data set deals with Plasmodium falciparum. Nature of the data set: Antiparasitic activity against erythrocytic stage of Plasmodium falciparum NF54 assessed as growth inhibition after 48 hrs by [3H]-hypoxanthine incorporation assay. It counts as functional, organism-based.
The next data set concerns L6. The data set can be described thus: Cytotoxicity against rat L6 cells after 70 hrs by resazurin dye-based fluorometric analysis. It counts as cell-based. To be noted: L6, 70 h.
Data set [4] relates to Trypanosoma brucei rhodesiense. Nature of the data set: Antitrypanosomal activity against bloodstream form of Trypanosoma brucei rhodesiense STIB900 assessed as growth inhibition after 70 hrs by resazurin dye-based fluorometric analysis. It counts as functional, organism-based. To be noted: STIB900, 70 h.
Another data set deals with Trypanosoma cruzi. Nature of the data set: Antitrypanosomal activity against […] of Trypanosoma cruzi Tulahuen C2C4 infected in rat L6 cells assessed as growth inhibition after 96 hrs by beta-galactosidase reporter gene assay. Conditions: Tulahuen C2C4, L6, 96 h. It counts as functional, organism-based.

Where only a bound is given, the exact number is not on record here.

On to `CCCCCCCCCCCCCCCCOP(=O)([O-])OCC[N+](C)(C)C` [MILTEFOSINE], for which, in the data set on Leishmania donovani, the IC50 amounted to 0.572 µM.

Regarding `Cc1ccc(OCc2ccc(C(=O)N3CCCCC3C)cc2)cc1` (stereo not given), the IC50 in data set [1] worked out at 9.2 µM. The selectivity ratio in data set [2] is 9.

`CCc1ccc(OCc2ccc(C(=O)N3CCC(C)CC3)cc2)cc1`: the IC50 in data set [1] was greater than 50 µM.

For the molecule `CCCc1ccc(OCc2ccc(C(=O)N3CCCCC3C)cc2)cc1` (stereo not given), the IC50 in data set [1] was found to be 10 µM. For the same molecule, in data set [2], the selectivity ratio is 8.

Turning to `CCOc1ccc(NCc2ccc(C(=O)N3CCCCC3)cc2)cc1`, the IC50 in data set [1] came out at 2.9 µM. The selectivity ratio in data set [2] is 29.

For `CCOc1ccc(OCc2ccc(C(=O)N3CCOCC3)cc2)cc1`, in data set [1], the IC50 worked out at 4.2 µM. Moreover, the selectivity ratio in data set [2] worked out at 20.

Regarding `CCOc1ccc(OCCCCCC(=O)N(C(C)C)C(C)C)cc1`, the IC50 in data set [1] was found to be 2.03 µM. Besides, the selectivity ratio in data set [2] worked out at 41.

Regarding `CCOc1ccc(OCc2ccc(C(=O)NC(C)C)cc2)cc1`, the IC50 in data set [1] is greater than 50 µM.

As for `COc1ccc(OCc2ccc(C(=O)N3CCC(C)CC3)cc2)cc1`, the concentration for half-maximal inhibition (IC50) in data set [1] is greater than 50 µM.

As to `CCc1ccc(OCc2ccc(C(=O)N3CCN(C)CC3)cc2)cc1`, the IC50 in data set [1] is greater than 50 µM.

As for `CCOc1ccc(OCCCCCC(=O)N2CCCCC2C)cc1` (stereo not given), the IC50 in data set [1] worked out at 1.66 µM. Besides, the selectivity ratio in data set [2] stood at 50.

Turning to `CCOc1ccc(OCc2ccc(C(=O)N3CCN(C)CC3)cc2)cc1`, the IC50 in data set [1] is greater than 50 µM.

Regarding `CCOc1ccc(NCc2ccc(C(=O)N3CCOCC3)cc2)cc1`, the IC50 in data set [1] is 20.6 µM. Further, the selectivity ratio in data set [2] was determined as 4.

In the case of `CCOc1ccc(OCc2ccc(C(=O)O)cc2)cc1`, the concentration for half-maximal inhibition (IC50) in data set [1] is greater than 50 µM.

Turning to `CCOc1ccc(OCCCCCC(=O)N2CCCCC2)cc1`, the IC50 in data set [1] amounted to 7.35 µM. The selectivity ratio in data set [2] was found to be 5.

For the molecule `CCOc1ccc(OCc2ccc(C(=O)N3CCCC(C)C3)cc2)cc1` (stereo not given), the IC50 in data set [1] stood at 1.15 µM; in the data set with Plasmodium falciparum, 22.3 µM; in the data set with L6 it was 186 µM; in data set [4] it was 0.985 µM; in the data set with Trypanosoma cruzi, 107 µM; in the data set on Leishmania donovani it was 35.7 µM. For the same molecule, the results for the selectivity ratio in data set [3] and in data set [2] were 190 and 36, respectively.

As to `COc1ccc(OCc2ccc(C(=O)N3CCN(C)CC3)cc2)cc1`, the IC50 in data set [1] is greater than 50 µM.

On to `CCOc1ccc(OCc2ccc(C(=O)N3CCC(C)CC3)cc2)cc1`, for which the IC50 in data set [1] is greater than 50 µM.

Regarding `COc1ccc(OCc2ccc(C(=O)N(C)c3ccccc3)cc2)cc1`, the IC50 in data set [1] was determined as 18 µM. Also, the selectivity ratio in data set [2] is 5.

For the molecule `CCCc1ccc(OCc2ccc(C(=O)N3CCCC(C)C3)cc2)cc1` (stereo not given), in data set [1], the IC50 was greater than 50 µM.

Take `O=C(Cn1ccnc1[N+](=O)[O-])NCc1ccccc1` [BENZNIDAZOLE]: in the data set on Trypanosoma cruzi, the IC50 stood at 2.33 µM.

Consider `Cc1ccc(OCc2ccc(C(=O)N3CCC(C)CC3)cc2)cc1`, for which the IC50 in data set [1] was greater than 50 µM.

For the molecule `CCc1ccc(OCc2ccc(C(=O)N3CCOCC3)cc2)cc1`, the IC50 in data set [1] amounted to 14.8 µM. In data set [2], the selectivity ratio was 6.

In general, IC50 refers to the midpoint of a concentration-inhibition curve.

The values above are taken from ChEMBL document CHEMBL3632462, “Synthesis and evaluation of phenoxymethylbenzamide analogues as anti-trypanosomal agents” (Medchemcomm, 2015).
